One assay addresses T1, B1R receptor of the rat (Rattus norvegicus, UniProt P97583).
T1 construct: host or cells: CHO K1 cells (Chinese hamster ovary), stably transfected
T1 sequence (P97583 1-337): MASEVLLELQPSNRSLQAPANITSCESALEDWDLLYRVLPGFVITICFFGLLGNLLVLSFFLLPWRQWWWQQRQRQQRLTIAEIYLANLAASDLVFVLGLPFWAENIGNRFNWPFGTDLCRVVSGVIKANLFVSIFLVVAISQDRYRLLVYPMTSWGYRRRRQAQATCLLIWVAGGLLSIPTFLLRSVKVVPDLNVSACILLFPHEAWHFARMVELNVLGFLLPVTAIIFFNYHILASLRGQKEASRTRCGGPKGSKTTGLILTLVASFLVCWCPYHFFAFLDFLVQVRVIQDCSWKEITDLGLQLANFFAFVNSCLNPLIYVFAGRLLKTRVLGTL
In words: Functional study on the bradykinin receptor 1 (B1R), FLIPR Ca2+ assay, rB1R cells. The format is cell-based. The note with it: test substance 10 μM; rB1R CHO K1 cells; agonist Des-Arg9-bradykinin 100 nM; % inhibition compared with the maximum achievable inhibition. An outline of the steps:
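CHO K1 cells stably expressing human or rat B1R were loaded with Fluo-4 and read on a FLIPR (ex 488/em 540 nm, peak fluorescence). Test compounds at 10 μM were added first, then after 10 min agonist: Lys-Des-Arg9-bradykinin 0.5 nM for hB1R, Des-Arg9-bradykinin 100 nM for rB1R; % inhibition versus maximum inhibition.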

Assay [1] has as its system formalin-induced pain behavior. In words: Formalin test in the mouse (phase 2, chronic pain component). It counts as in vivo. The note with it: iv, 5 min. before formalin injection, observation 21 to 24 minutes after formalin. The protocol:
The formalin test (Dubuisson, D. and Dennis, S. G., 1977, Pain, 4, 161-174) represents a model for both acute and chronic pain. By means of a single formalin injection into the dorsal side of a rear paw, a biphasic nociceptive reaction is induced in freely mobile test animals; the reaction is detected by observing three behaviour patterns which are clearly distinguishable from one another. The reaction is two-phase: phase 1=immediate reaction (duration up to 10 min., shaking of the paw, licking), phase 2=late reaction (after a rest phase; likewise shaking of the paw, licking; duration up to 60 min.). The 1st phase reflects a direct stimulation of the peripheral nocisensors with high spinal nociceptive input (acute pain phase); the 2nd phase reflects a spinal and peripheral hypersensitization (chronic pain phase). In the studies described here, the chronic pain component (phase 2) has been evaluated. Formalin in a volume of 20 μl and a concentration of 1% is administered subcutaneously into the dorsal side of the right rear paw of each animal. The specific changes in behavior, such as lifting, shaking or licking of the paw (score 3, Dubuisson & Dennis, 1977), are observed and recorded in the observation period of 21 to 24 minutes following the formalin injection. The behaviour of the animals after administration of the substance (n=10 per dose of substance) was compared with a control group which received vehicle (n=10). Based on the quantification of the pain behavior, the action of the substance in the formalin test was determined as the change in percent compared with the control. The ED50 calculations (ED50=mean effective dose) were carried out by regression analysis according to the method of Litchfield and Wilcoxon (Litchfield, J. T., Wilcoxon, J. J., 1949, J. Pharmacol. Exp. Ther. 96, 99-113). The time of administration before the formalin injection was chosen in dependence on the mode of administration of the compounds according to the invention (intravenous: 5 min.).

Usually ED50 stands for the dose at which the effect has come halfway, by size or by number of responders.

Turning to `COc1cc(C)c(S(=O)(=O)N2CCCCC2COCC(=O)N2CCN(C3CCN(C)CC3)CC2)c(C)c1` (centres unmarked) [Example 8, 2-[1-(4-methoxy-2,6-dimethyl-phenylsulfonyl)-piperidin-2-ylmethoxy]-1-[4-(1-methyl-piperidin-4-yl)-piperazin-1-yl]-ethanone], on B1R receptor of the rat, the “B1R Antagonism, rat [10 μM] % Inhibition” value is reported as 106.6%. This compound also displayed an ED50 in assay [1] of 12.8 mg/kg.

The values above are taken from patent publication US8435978B2, “Substituted sulfonamide compounds” (Gruenenthal GmbH, priority 2006, dated 2013).
